# Laboratory results from PMC6934184, “Selective DNA-PKcs inhibition extends the therapeutic index of localized radiotherapy and chemotherapy” (The Journal of Clinical Investigation, 2019).
# Target: T1, FGR (Homo sapiens, UniProt P09769)
# T1 construct: purchased Thermo Fisher Scientific (Life Technologies) SelectScreen
# Assay: SelectScreen Z'LYTE
# Type: biochemical
# Method in brief: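 Percent values come from Thermo SelectScreen profiling of NU5455, combining activity and binding assays. CSF1R was run in Z'LYTE format at Km app ATP, and CAMK1 in Adapta format with ATP listed at 10.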
# T1 sequence (P09769 whole entry): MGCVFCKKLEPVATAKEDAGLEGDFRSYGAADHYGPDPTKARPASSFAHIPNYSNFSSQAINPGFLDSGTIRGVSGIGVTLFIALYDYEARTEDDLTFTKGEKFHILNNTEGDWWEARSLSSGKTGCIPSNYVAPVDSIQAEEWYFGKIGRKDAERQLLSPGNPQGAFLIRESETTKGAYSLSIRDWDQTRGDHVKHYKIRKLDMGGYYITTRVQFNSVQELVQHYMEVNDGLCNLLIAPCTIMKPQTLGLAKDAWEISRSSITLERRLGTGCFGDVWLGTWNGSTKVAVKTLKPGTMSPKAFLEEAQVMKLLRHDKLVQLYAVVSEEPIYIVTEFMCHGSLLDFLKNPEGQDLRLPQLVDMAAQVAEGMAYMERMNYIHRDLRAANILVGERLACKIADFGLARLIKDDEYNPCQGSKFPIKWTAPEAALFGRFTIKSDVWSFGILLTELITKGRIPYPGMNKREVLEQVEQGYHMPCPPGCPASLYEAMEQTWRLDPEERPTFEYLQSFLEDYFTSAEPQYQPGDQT
compound,measurement,value
CN(C(=O)CN1CCOCC1)c1ccc2sc3c(-c4cccc5c(=O)cc(N6CC7CCC(C6)O7)oc45)cccc3c2c1 [NU5455],inhibition at 1 µM,12.1%
